In ChEMBL document CHEMBL3608289, “Miltirone Is a Dual Inhibitor of P-Glycoprotein and Cell Growth in Doxorubicin-Resistant HepG2 Cells” (J Nat Prod, 2015):
The source made the active and inactive calls. The rule behind the calls is not given here.

Assays:
HepG2 [1] = assay: Induction of apoptosis in human doxorubicin-resistant HepG2 cells expressing p-gp assessed as activation of caspase-3/8/9 after 24 hrs by Western blotting; assay type: functional, cell-based
HepG2 [2] = assay: Induction of apoptosis in human doxorubicin-resistant HepG2 cells expressing p-gp assessed as activation of caspase-3/8/9 at 12.5 after 24 hrs by Western blotting in presence of Z-IETD-FMK; assay type: functional, cell-based
[3] = target: T1, Mitogen-activated protein kinase; ERK1/ERK2 (Homo sapiens) (UniProt P27361+P28482); assay: Inhibition of ERK1/2 phosphorylation in human doxorubicin-resistant HepG2 cells expressing p-gp at 1.56 to 25 uM by Western blot analysis; assay type: cell-based
HepG2 [4] = assay: Induction of ROS generation in human doxorubicin-resistant HepG2 cells expressing p-gp at 25 uM after 15 mins using H2DCFH dye by confocal microscopy; assay type: functional, cell-based
[5] = Cytotoxicity against human PLC/PRF/5 cells after 24 hrs by MTT assay; assay type: functional, cell-based; settings: PLC-PRF-5, 24 h
HepG2 [6] = assay: Increase of SAPK/JNK phosphorylation in human doxorubicin-resistant HepG2 cells expressing p-gp at 1.56 to 25 uM by Western blot analysis in presence of SB203580; assay type: cell-based
HepG2 [7] = assay: Induction of ROS generation in human HepG2 cells at 25 uM after 15 to 30 mins using H2DCFH dye by confocal microscopy; assay type: functional, cell-based
HepG2 [8] = assay: Induction of apoptosis in human doxorubicin-resistant HepG2 cells expressing p-gp assessed as activation of caspase-3/8/9 at 12.5 after 24 hrs by Western blotting in presence of trolox; assay type: functional, cell-based
HepG2 [9] = assay: Increase of SAPK/JNK phosphorylation in human HepG2 cells at 1.56 to 25 uM by Western blot analysis in presence of SB203580; assay type: cell-based
HepG2 [10] = assay: Induction of apoptosis in human doxorubicin-resistant HepG2 cells expressing p-gp assessed as increase in PARP cleavage after 24 hrs by Western blotting; assay type: functional, cell-based
HepG2 [11] = assay: Effect on nonphosphorylated ERK1/ERK2 level in human doxorubicin-resistant HepG2 cells expressing p-gp at 25 uM by Western blot analysis; assay type: ADME, cell-based; settings: hepg2, 25 µM
HepG2 [12] = assay: Induction of apoptosis in human HepG2 cells assessed as activation of caspase-3/8/9 at 12.5 after 24 hrs by Western blotting in presence of Z-IETD-FMK; assay type: functional, cell-based
HepG2 [13] = assay: Induction of apoptosis in human HepG2 cells assessed as activation of caspase-3/8/9 at 12.5 after 24 hrs by Western blotting in presence of Z-LEHD-FMK; assay type: functional, cell-based
HepG2 [14] = assay: Induction of oxidative stress in human HepG2 cells assessed as decrease of GSH level per gram of protein at 25 uM after 24 hrs using DTNB by enzymatic kinetic method relative to control; assay type: functional
[15] = Cytotoxicity against human Hep3B cells after 24 hrs by MTT assay; assay type: functional, cell-based, Hep 3B2
HepG2 [16] = assay: Increase of SAPK/JNK phosphorylation in human doxorubicin-resistant HepG2 cells expressing p-gp at 1.56 to 25 uM by Western blot analysis; assay type: cell-based
HepG2 [17] = assay: Increase of SAPK/JNK phosphorylation in human HepG2 cells at 1.56 to 25 uM by Western blot analysis; assay type: cell-based
[18] = target: T1, Mitogen-activated protein kinase; ERK1/ERK2 (Homo sapiens); assay: Inhibition of ERK1/2 phosphorylation in human HepG2 cells at 1.56 to 25 uM by Western blot analysis; assay type: cell-based
HepG2 [19] = assay: Effect on nonphosphorylated ERK1/ERK2 level in human HepG2 cells at 25 uM by Western blot analysis; assay type: ADME, cell-based; settings: hepg2, 25 µM
HepG2 [20] = assay: Increase of SAPK/JNK phosphorylation in human doxorubicin-resistant HepG2 cells expressing p-gp at 1.56 to 25 uM by Western blot analysis in presence of NAC; assay type: cell-based
[21] = target: T2, MAP kinase p38 (Homo sapiens) (UniProt O15264+Q15759+Q16539+P53778); assay: Inhibition of p38 MAPK phosphorylation in human doxorubicin-resistant HepG2 cells expressing p-gp at 1.56 to 25 uM by Western blot analysis; assay type: cell-based
HepG2 [22] = assay: Induction of oxidative stress in human doxorubicin-resistant HepG2 cells expressing p-gp assessed as decrease of GSH level per gram of protein at 1.56 to 3.12 uM after 24 hrs using DTNB by enzymatic kinetic method relative to control; assay type: functional, cell-based
HepG2 [23] = assay: Induction of oxidative stress in human doxorubicin-resistant HepG2 cells expressing p-gp assessed as decrease of GSH level per gram of protein at 25 uM after 24 hrs using DTNB by enzymatic kinetic method relative to control; assay type: functional
[24] = target: T2, MAP kinase p38 (Homo sapiens); assay: Inhibition of p38 MAPK phosphorylation in human HepG2 cells at 1.56 to 25 uM by Western blot analysis in presence of SB203580; assay type: cell-based
HepG2 [25] = assay: Competitive inhibition of p-glycoprotein in human doxorubicin-resistant HepG2 cells assessed as reduction of doxorubicin efflux after 1 hr by primary Dixon plot analysis; assay type: cell-based
HepG2 [26] = assay: Effect on nonphosphorylated SAPK/JNK level in human doxorubicin-resistant HepG2 cells expressing p-gp at 25 uM by Western blot analysis; assay type: ADME, cell-based; settings: hepg2, 25 µM
HepG2 [27] = assay: Effect on nonphosphorylated SAPK/JNK level in human HepG2 cells at 25 uM by Western blot analysis; assay type: ADME, cell-based; settings: hepg2, 25 µM
[28] = Cytotoxicity against human Hep3B cells after 24 hrs by MTT assay in presence of doxorubicin; assay type: functional, cell-based, Hep 3B2
[29] = target: T1, Mitogen-activated protein kinase; ERK1/ERK2 (Homo sapiens); assay: Inhibition of ERK1/2 phosphorylation in human doxorubicin-resistant HepG2 cells expressing p-gp at 1.56 to 25 uM by Western blot analysis in presence of NAC; assay type: cell-based
HepG2 [30] = assay: Cytotoxicity against human HepG2 cells after 24 hrs by MTT assay; assay type: functional, cell-based; settings: HepG2, 24 h

T1 sequence (P27361 whole entry, looked up): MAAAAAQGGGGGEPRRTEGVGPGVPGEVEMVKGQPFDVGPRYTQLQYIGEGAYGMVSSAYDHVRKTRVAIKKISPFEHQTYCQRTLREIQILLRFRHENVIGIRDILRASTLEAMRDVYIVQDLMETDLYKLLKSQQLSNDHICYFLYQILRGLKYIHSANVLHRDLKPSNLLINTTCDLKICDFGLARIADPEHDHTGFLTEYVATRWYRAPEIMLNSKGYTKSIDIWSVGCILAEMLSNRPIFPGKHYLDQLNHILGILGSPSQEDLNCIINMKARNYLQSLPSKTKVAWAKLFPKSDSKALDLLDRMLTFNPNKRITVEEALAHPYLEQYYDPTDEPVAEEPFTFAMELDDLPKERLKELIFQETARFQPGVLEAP
T1 sequence (P28482 whole entry, looked up): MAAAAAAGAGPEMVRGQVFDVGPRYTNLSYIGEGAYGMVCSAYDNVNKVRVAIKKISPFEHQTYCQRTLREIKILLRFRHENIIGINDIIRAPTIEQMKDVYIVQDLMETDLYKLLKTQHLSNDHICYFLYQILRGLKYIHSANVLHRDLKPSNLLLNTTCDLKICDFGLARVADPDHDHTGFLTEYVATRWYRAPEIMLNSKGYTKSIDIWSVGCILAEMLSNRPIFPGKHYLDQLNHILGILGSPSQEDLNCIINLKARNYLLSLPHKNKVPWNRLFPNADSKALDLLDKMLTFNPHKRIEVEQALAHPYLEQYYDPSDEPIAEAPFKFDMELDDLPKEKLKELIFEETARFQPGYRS

In the case of `CC(C)C1=Cc2ccc3c(c2C(=O)C1=O)CCCC3(C)C` [MILTIRONE], the Activity (HepG2 [1]) is reported as “Active”, the Activity (HepG2 [2]) is reported as “inactive” and the inhibition [3] is reported as “Active”. For the same compound, the Activity (HepG2 [4]) was “Active”, the EC50 [5] was 27.1 µM and the Activity (HepG2 [6]) was “Active”. For the same compound, the Activity (HepG2 [7]) was “Active”, the Activity (HepG2 [8]) was “inactive” and the Activity (HepG2 [9]) was “inactive”. For the same compound, the Activity (HepG2 [10]) was “Active”, the Activity (HepG2 [11]) was “Non-toxic” and the Activity (HepG2 [12]) was “inactive”. The Activity (HepG2 [13]) was “inactive”, the Activity (HepG2 [14]) was 2.4 µmol and the EC50 [15] was 14.8 µM. The Activity (HepG2 [16]) was “Active”, the Activity (HepG2 [17]) was “Active” and the inhibition [18] was “Active”. For the same compound, the Activity (HepG2 [19]) was “Non-toxic”, the inhibition (HepG2 [20]) was “inactive” and the inhibition [21] was “Active”. The Activity (HepG2 [22]) was “inactive”, the Activity (HepG2 [23]) was 1.2 µmol and the inhibition [24] was “inactive”. For the same compound, the inhibition (HepG2 [25]) was “Active”, the Activity (HepG2 [26]) was “Non-toxic” and the Activity (HepG2 [27]) was “Non-toxic”. For the same compound, the EC50 [28] was 6.6 µM, the inhibition [29] was “inactive” and the EC50 (HepG2 [30]) was 7.1 µM.
